The source of these data is ChEMBL document CHEMBL1201862, “PubChem BioAssay data set” (2004).

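Interpolation was linear, between the two tested concentrations surrounding the appropriate level; five concentrations were tested over 48 hours in 96-well plates. GI50 is the concentration that inhibits growth by half.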 The source made the active and inactive calls. Cut-off read from the data, not from the text of the source: active = GI50 up to about 1.1 µM and inactive = higher. Where only a bound is given, the exact number is not on record here.

Common to all, as to assay: DTP human tumour cell line panel, 48 h
The subject of experiment [1] is A498.
For experiment [2], the system named is CCRF-CEM.
The subject of experiment [3] is HCT-116.
The subject of experiment [4] is HCT-15.
The test system of experiment [5] is HOP-92.
Experiment [6] concerns MOLT-4.
Experiment [7] deals with Malme-3M.
The test system of experiment [8] is OVCAR-5.
Experiment [9] relates to OVCAR-8.
Experiment [10] relates to RXF 393.
For experiment [11], the system named is SF-268.
Experiment [12] deals with SK-MEL-2.
For experiment [13], the system named is SK-OV-3.
For experiment [14], the system named is TK-10.
In experiment [15] the test system is NCI-H460.
For experiment [16], the system named is UO-31.

On to `Cn1c(N)c(-c2c3ccccc3nc3ccccc23)c(=O)n(C)c1=O`, for which the GI50 (in general, the concentration at which growth is held to half of that of the control) was > 100 µM (inactive) in experiment [1]; > 100 µM (inactive) in experiment [2]; > 100 µM (inactive) in experiment [3]; above 100 µM in [4]; > 100 µM (inactive) in experiment [5]; > 100 µM (inactive) in experiment [6]. In addition, the GI50 in experiment [7], in experiment [8], in experiment [9], in experiment [10], in experiment [11] and in experiment [12] was > 100 µM (inactive) throughout. Further, the GI50 in experiment [13] and in [14] was > 100 µM (inactive) each time.
For the compound `CC(C)(C)OC(=O)N1N=NC2C1C1CC(OCc3ccccc3)(OCc3ccccc3)C2O1` (stereo not given), the GI50 in [1] was > 100 µM (inactive); in experiment [2], 11.2 µM (inactive); in experiment [4] it was 31.3 µM; in experiment [5] it was 33.5 µM (inactive); in experiment [6] it was 7.82 µM (inactive); in experiment [7], 65.8 µM (inactive). Besides, the GI50 is > 100 µM (inactive) in [15]; > 100 µM (inactive) in experiment [8]; 27.9 µM (inactive) in [10]; 35.1 µM (inactive) in experiment [11]; 49.2 µM (inactive) in experiment [12]; > 100 µM (inactive) in experiment [13]. In addition, the GI50 in [16] was 29.9 µM (inactive).
`CCOC(=O)C(=O)Nc1nc2c(OCC)cccc2s1`: the GI50 in experiment [1] is > 100 µM (inactive); in [3], > 100 µM (inactive); in [4], above 100 µM; in experiment [5], > 100 µM (inactive); in experiment [6] it was > 100 µM (inactive); in experiment [7], > 100 µM (inactive). In addition, the GI50 in experiment [15], in experiment [8], in experiment [9], in experiment [10], in experiment [11] and in experiment [12] was > 100 µM (inactive) throughout. For the same compound, the GI50 in [13], in experiment [14] and in [16] was > 100 µM (inactive) each time.
For the compound `N#CC(/C(=N/NC(=O)C(=O)NN)C(=O)Nc1nc([N+](=O)[O-])cs1)c1ccc(Cl)cc1` (stereo not given), the GI50 was 89.5 µM (inactive) in experiment [2]; > 100 µM (inactive) in [3]; > 100 µM (inactive) in experiment [5]; > 100 µM (inactive) in experiment [6]; > 100 µM (inactive) in experiment [7]; > 100 µM (inactive) in experiment [15]. Besides, the GI50 in experiment [8], in [9], in [10], in experiment [11], in [12] and in experiment [14] was > 100 µM (inactive) in each case. Moreover, in experiment [16], the GI50 was > 100 µM (inactive).
For the compound `Oc1ccc(O)c(-n2cccn2)c1`, the GI50 is > 100 µM (inactive) in [1]; 20.6 µM (inactive) in experiment [2]; above 100 µM in [4]; 45.9 µM (inactive) in experiment [5]; 21.9 µM (inactive) in experiment [6]; > 100 µM (inactive) in experiment [7]. Also, the GI50 in [15] was > 100 µM (inactive); in experiment [8], 88.9 µM (inactive); in experiment [9] it was 40.7 µM (inactive); in experiment [10], 38.1 µM (inactive); in [11], 85.9 µM (inactive); in experiment [12], 37 µM (inactive). For the same compound, the GI50 was > 100 µM (inactive) in [13], 32.1 µM (inactive) in experiment [14] and 56.4 µM (inactive) in [16].
Turning to `COc1ccc(CNc2nc3ccccc3nc2-c2cccs2)cc1OC`, the GI50 is 33.3 µM (inactive) in [2]; 33.5 µM (inactive) in [3]; 34.8 µM in [4]; 13.4 µM (inactive) in [5]; 12.6 µM (inactive) in experiment [6]; 45.1 µM (inactive) in [7]. Also, the GI50 was 20.8 µM (inactive) in experiment [15]; > 100 µM (inactive) in experiment [8]; 34 µM (inactive) in experiment [9]; 41.9 µM (inactive) in [10]; 47.4 µM (inactive) in experiment [11]; 63.7 µM (inactive) in experiment [12]. Moreover, the GI50 in experiment [14] was 74 µM (inactive); in experiment [16], 22.6 µM (inactive).
For the compound `O=C(O)c1cc(-c2ccccc2O)nc2ccccc12`, the GI50 in [1] was > 100 µM (inactive); in experiment [2] it was > 100 µM (inactive); in experiment [3], > 100 µM (inactive); in experiment [4], above 100 µM; in [6], > 100 µM (inactive); in experiment [7], > 100 µM (inactive). In addition, the GI50 in experiment [15], in experiment [8], in experiment [9], in experiment [11], in experiment [12] and in experiment [13] was > 100 µM (inactive) in each case. For the same compound, the GI50 in [14] and in [16] was > 100 µM (inactive) in each case.
Consider `CC1=C2CCCC2=C/C(=N/Nc2ccc([N+](=O)[O-])cc2[N+](=O)[O-])CC1`, for which the GI50 in [2], in [3], in experiment [5], in experiment [6], in [7] and in [15] was > 100 µM (inactive) each time. Besides, the GI50 in [8] was > 100 µM (inactive); in experiment [9], > 100 µM (inactive); in experiment [10], > 100 µM (inactive); in experiment [11] it was > 100 µM (inactive); in experiment [12], 27.9 µM (inactive); in experiment [13], > 100 µM (inactive). The GI50 in [14] and in experiment [16] was > 100 µM (inactive) in each case.
With `N#C/C1=C(\N)CCSSSC1`, the GI50 in experiment [1] was 28.9 µM (inactive); in experiment [2], 48.9 µM (inactive); in experiment [3] it was 40.2 µM (inactive); in experiment [4] it was 27.9 µM; in experiment [5] it was 32.1 µM (inactive); in experiment [6], 69.3 µM (inactive). In addition, the GI50 was 34.5 µM (inactive) in [7]; 23.6 µM (inactive) in experiment [15]; 53.1 µM (inactive) in experiment [8]; 21 µM (inactive) in [9]; 58.3 µM (inactive) in [10]; 42.9 µM (inactive) in experiment [11]. The GI50 is 25.8 µM (inactive) in experiment [12], 52.5 µM (inactive) in experiment [13], > 100 µM (inactive) in experiment [14] and 56.4 µM (inactive) in experiment [16].
In the case of `CCOC(=O)CC1NC(=O)CS1` (stereo not given), the GI50 in [1] is > 100 µM (inactive); in [2], > 100 µM (inactive); in experiment [3] it was 21.7 µM (inactive); in experiment [4], 20 µM; in experiment [5], > 100 µM (inactive); in [6], > 100 µM (inactive). In addition, the GI50 in [7] was > 100 µM (inactive); in experiment [15] it was 60.4 µM (inactive); in experiment [8], > 100 µM (inactive); in experiment [9], > 100 µM (inactive); in experiment [11], 49.7 µM (inactive); in [13] it was > 100 µM (inactive). Moreover, the GI50 in experiment [14] and in [16] was > 100 µM (inactive) throughout.
As for `CCc1cc(Cc2cc(CC)c(NC(=O)C3=CC(=O)CC(c4ccc(OC)cc4)O3)c(CC)c2Cl)c(Cl)c(CC)c1NC(=O)C1=CC(=O)CC(c2ccc(OC)cc2)O1` (stereo not given), the GI50 in experiment [1] is 21.7 µM (inactive); in [2] it was 28.1 µM (inactive); in experiment [3] it was 16.7 µM (inactive); in experiment [4], 25.6 µM; in experiment [5] it was 20.8 µM (inactive); in experiment [6] it was 31.8 µM (inactive). Also, the GI50 was 19.1 µM (inactive) in [7]; 17.7 µM (inactive) in [15]; 20.7 µM (inactive) in experiment [8]; 26.5 µM (inactive) in experiment [9]; 17.9 µM (inactive) in [10]; 25.9 µM (inactive) in [11]. Moreover, the GI50 in experiment [12] is 17.3 µM (inactive); in experiment [13], 17 µM (inactive); in [14] it was 19.7 µM (inactive); in experiment [16], 16.5 µM (inactive).
On to `Cc1nnc2n1N=C(c1ccc(-c3ccc([N+](=O)[O-])cc3)o1)CS2`, for which the GI50 in [3] is > 100 µM (inactive); in experiment [4], above 100 µM; in experiment [5], > 100 µM (inactive); in [6] it was > 100 µM (inactive); in experiment [7], > 100 µM (inactive); in experiment [15], > 100 µM (inactive). Besides, the GI50 in [8], in [9], in experiment [11], in [12], in experiment [13] and in [14] was > 100 µM (inactive) throughout. For the same compound, the GI50 in experiment [16] was > 100 µM (inactive).
For the compound `NC(=O)c1cccc(C2OC(COP(=O)(O)O)C(O)C2O)c1` (stereo not given), the GI50 in experiment [1] is > 50 µM (inactive); in [2] it was 9.93 µM (inactive); in experiment [3], > 50 µM (inactive); in [4] it was 27.4 µM; in experiment [6], 10.9 µM (inactive); in [7] it was > 50 µM (inactive). Besides, the GI50 was > 50 µM (inactive) in experiment [15]; > 50 µM (inactive) in experiment [8]; 16 µM (inactive) in [9]; 18.6 µM (inactive) in experiment [10]; 36.9 µM (inactive) in experiment [11]; > 50 µM (inactive) in experiment [12]. Further, the GI50 in experiment [13] is > 50 µM (inactive); in experiment [14], > 50 µM (inactive); in experiment [16], 26.1 µM (inactive).
Turning to `CC(=O)O[C@H]1CCN2C(=O)C=CC(OCc3ccccc3)C12` (stereo not given in full), the GI50 is > 100 µM (inactive) in [1]; > 100 µM (inactive) in experiment [2]; above 100 µM in [4]; > 100 µM (inactive) in experiment [5]; > 100 µM (inactive) in experiment [6]; > 100 µM (inactive) in experiment [7]. Further, the GI50 in experiment [15], in [8], in experiment [9], in [11], in experiment [12] and in experiment [13] was > 100 µM (inactive) throughout. For the same compound, the GI50 in experiment [14] and in [16] was > 100 µM (inactive) in each case.
